Experimental data from US12129244B2, “Modulators of Mas-related G-protein receptor X2 and related products and methods” (Escient Pharmaceuticals, Inc., priority 2022, dated 2024).

target: T1, human MRGPRX2 (Homo sapiens, UniProt Q96LB1); test: MRGPRX2 activity: IP-One HTRF antagonist assay in CHO cells versus Cortistatin-14; type: cell-based; conditions: CHO cells stably expressing human MRGPRX2; versus 0.3 uM Cortistatin-14 agonist; IP-1 HTRF
T1 construct: expressed in transfected cells
T1 sequence (Q96LB1 1-330): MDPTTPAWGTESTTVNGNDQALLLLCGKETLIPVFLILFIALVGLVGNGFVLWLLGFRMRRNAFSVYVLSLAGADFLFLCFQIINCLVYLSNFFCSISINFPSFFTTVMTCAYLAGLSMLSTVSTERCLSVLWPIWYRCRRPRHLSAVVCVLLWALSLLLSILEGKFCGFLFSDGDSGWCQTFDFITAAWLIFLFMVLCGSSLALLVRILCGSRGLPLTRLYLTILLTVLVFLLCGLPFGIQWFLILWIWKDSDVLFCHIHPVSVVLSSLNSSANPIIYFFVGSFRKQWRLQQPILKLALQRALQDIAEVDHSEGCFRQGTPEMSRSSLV
Procedure: CHO cells stably transfected to express human MRGPRX2 were maintained in an incubator at 37° C. with 5% CO2 and grown in F12 (HAM) media with 10% fetal bovine serum (FBS), 1% Glutamax, 1% penicillin/streptomycin, 800 μg/mL Geneticin (G418), and 300 μg/mL Hygromycin B.
Cells were plated in a 384-well assay plate at 20,000 cells per well in 12 μL of Opti-MEM and kept in an incubator overnight. On the day of the assay, compounds solubilized at 10 mM in DMSO were added as a 10-point curve (30 uM final top concentration with 1:3 serial dilutions) using a Tecan D300E digital dispenser. Agonists were diluted in assay buffer (final concentrations of 5.7 mM Tris-HCl, 43 mM NaCl, 50 mM LiCl, pH=8) and 2 μL of the agonist Cortistatin-14 (CPC Scientific, catalog CORT-002) are added to each well. Final concentrations of agonists were 0.3 μM Cortistatin. Final concentrations of DMSO were kept consistent across the plate. Plates were incubated in the dark for 1 h at 37° C. and then for 1 h at room temperature. IP-1 standards and HTRF detection reagents were added according to the IP-One-Gq Kit purchased from Cisbio (part number 62IPAPEJ) and incubated in the dark for 1 h at room temperature. The plate was read on a Molecular Devices SpectraMax iD5 plate reader. The HTRF ratio was calculated from the raw data and graphed using GraphPad Prism to calculate an IC50 value for each compound.
The activity ranges are denoted as follows: “+++++” denotes antagonist activity <100 nM; “++++” denotes antagonist activity between 100 and 500 nM; “+++” denotes activity between 501 and 1000 nM; “[…]” denotes activity between 1001 and 2500 nM; and “+” denotes activity >2500 nM

SMILES | IC50 [nM]
O=C(N[C@@H]1CCC[C@H](Nc2cc(C(F)(F)F)nc3ccccc23)C1)C1COCCN1Cc1ccccc1 (mixture of isomers) [Example 4-31] | > 2500
CC1C(C(=O)N[C@@H]2CCC[C@H](Nc3cc(C(F)(F)F)nc4ccccc34)C2)CC2CC1C2(C)C (mixture of isomers) [Example 4-64] | > 2500
O=C(CCc1cc(Br)ccc1F)N[C@@H]1CCC[C@H](Nc2cc(C(F)(F)F)nc3ccccc23)C1 (racemic) [Example 4-74] | > 2500
O=C(CCc1ccc(Cl)c(F)c1)N[C@@H]1CCC[C@H](Nc2cc(C(F)(F)F)nc3ccccc23)C1 (racemic) [Example 4-82] | > 2500
O=C(N[C@@H]1CCC[C@H](Nc2cc(C(F)(F)F)nc3ccccc23)C1)c1coc2ccccc2c1=O (racemic) [Example 4-111] | > 2500
O=C(N[C@@H]1CCC[C@H](Nc2cc(C(F)(F)F)nc3ccccc23)C1)c1ccccc1Oc1ccccc1 (racemic) [Example 4-113] | > 2500
COC(=O)c1cccc(C(=O)N[C@@H]2CCC[C@H](Nc3cc(C(F)(F)F)nc4ccccc34)C2)c1 [Example 3-5] | 100 to 500
O=C(N[C@@H]1CCC[C@H](Nc2cc(C(F)(F)F)nc3ccc(Cl)cc23)C1)c1ccc(C(=O)N2CCOCC2)cc1 [Example 3-20] | < 100
CCc1ccc(C(=O)N[C@@H]2CCC[C@H](Nc3cc(C(F)(F)F)nc4ccccc34)C2)cc1 [Example 4-18] | 100 to 500
CNc1ccc(C(=O)N[C@@H]2CCC[C@H](Nc3cc(C(F)(F)F)nc4ccc(C)cc34)C2)cc1 [Example 4-130] | < 100
Cc1ccc2nc(C(F)(F)F)cc(N[C@H]3CCC[C@@H](NC(=O)c4cccc(N(C)C)c4)C3)c2c1 [Example 4-159] | 100 to 500
CNc1ccccc1C(=O)N[C@@H]1CCC[C@H](Nc2cc(C(F)(F)F)nc3ccc(C)cc23)C1 [Example 4-165] | 501 to 1000
C=CC12CCC(C(=O)N[C@@H]3CCC[C@H](Nc4cc(C(F)(F)F)nc5ccccc45)C3)(CC1)CO2 [Example 4-171] | 501 to 1000
O=C(N[C@@H]1CCC[C@H](Nc2cc(C(F)(F)F)nc3ccccc23)C1)c1ccc2[nH]c(-c3ccncc3)nc2c1 [Example 4-181] | 100 to 500
CN(C)c1cccc(C(=O)N[C@@H]2CCC[C@H](Nc3cc(C(F)(F)F)nc4ccc(Cl)cc34)C2)c1 [Example 4-216] | 100 to 500
O=C(N[C@@H]1CCC[C@H](Nc2cc(C(F)(F)F)nc3ccc(Cl)cc23)C1)c1cccc2[nH]ccc12 [Example 4-223] | < 100
CC(C)S(=O)(=O)Nc1cccc(C(=O)N[C@@H]2CCC[C@H](Nc3cc(C(F)(F)F)nc4ccc(Cl)cc34)C2)c1 [Example 4-228] | < 100
CS(=O)(=O)Nc1ccc(C(=O)N[C@@H]2CCC[C@H](Nc3cc(C(F)(F)F)nc4ccc(Cl)cc34)C2)cc1 [Example 4-240] | < 100
O=C(N[C@@H]1CCC[C@H](Nc2cc(C(F)(F)F)nc3ccc(Cl)cc23)C1)c1ccc2nncn2c1 [Example 4-245] | < 100
O=C(N[C@@H]1CCC[C@H](Nc2cc(C(F)(F)F)nc3ccc(Cl)cc23)C1)c1cccc(Cl)c1 [Example 4-249] | 100 to 500
CS(=O)(=O)Nc1cc(C(=O)N[C@@H]2CCC[C@H](Nc3cc(C(F)(F)F)nc4ccc(Cl)cc34)C2)ccc1F [Example 4-258] | < 100
O=C(N[C@@H]1CCC[C@H](Nc2cc(C(F)(F)F)nc3ccc(Cl)cc23)C1)c1ccnc2cn[nH]c12 [Example 4-263] | < 100
Cc1cn2cc(C(=O)N[C@@H]3CCC[C@H](Nc4cc(C(F)(F)F)nc5ccc(Cl)cc45)C3)ccc2n1 [Example 4-265] | < 100
O=C(N[C@@H]1CCC[C@H](Nc2cc(C(F)(F)F)nc3ccc(Cl)cc23)C1)c1cc(O)cc(O)c1 [Example 4-271] | < 100
CC(C#N)c1cccc(C(=O)N[C@@H]2CCC[C@H](Nc3cc(C(F)(F)F)nc4ccc(F)cc34)C2)c1 (stereo partly shown) [Example 4-282] | < 100
O=C(N[C@@H]1CCC[C@H](Nc2cc(C(F)(F)F)nc3ccc(F)cc23)C1)c1cccc(O)c1 [Example 4-284] | < 100
CC(C)S(=O)(=O)Nc1cccc(C(=O)N[C@@H]2CCC[C@H](Nc3cc(C(F)(F)F)nc4ccc(F)cc34)C2)c1 [Example 4-297] | < 100
CS(=O)(=O)Nc1cccc(C(=O)N[C@@H]2CCC[C@H](Nc3cc(C(F)(F)F)nc4ccc(F)cc34)C2)c1 [Example 4-302] | < 100

SMILES | IC50 [nM]
CS(=O)(=O)Nc1ccc(C(=O)N[C@@H]2CCC[C@H](Nc3cc(C(F)(F)F)nc4ccc(F)cc34)C2)cc1 [Example 4-317] | < 100
CCCn1nccc1C(=O)N[C@@H]1CCC[C@H](Nc2cc(C(F)(F)F)nc3ccc(F)cc23)C1 [Example 4-325] | 100 to 500
O=C(N[C@@H]1CCC[C@H](Nc2cc(C(F)(F)F)nc3ccc(Cl)cc23)C1)c1c[nH]cc1C(F)(F)F [Example 4-394] | < 100
O=C(N[C@@H]1CCC[C@H](Nc2cc(C(F)(F)F)nc3ccc(Cl)cc23)C1)c1cnn(CCCl)c1 [Example 4-396] | < 100
O=C(N[C@@H]1CCC[C@H](Nc2cc(C(F)(F)F)nc3ccc(Cl)cc23)C1)c1ccn2cnnc2c1 [Example 4-397] | < 100
O=C(N[C@@H]1CCC[C@H](Nc2cc(C(F)(F)F)nc3ccc(Cl)cc23)C1)c1cncc2cn[nH]c12 [Example 4-398] | < 100
Cc1nn(C)cc1C(=O)N[C@@H]1CCC[C@H](Nc2cc(C(F)(F)F)nc3ccc(Cl)cc23)C1 [Example 4-401] | < 100
Cn1cc(C(=O)N[C@@H]2CCC[C@H](Nc3cc(C(F)(F)F)nc4ccc(Cl)cc34)C2)c(C(F)F)n1 [Example 4-404] | < 100
O=C(N[C@@H]1CCC[C@H](Nc2cc(C(F)(F)F)nc3ccc(Cl)cc23)C1)c1cn[nH]c1C1CC1 [Example 4-405] | < 100
O=C(N[C@@H]1CCC[C@H](Nc2cc(C(F)(F)F)nc3ccc(Cl)cc23)C1)c1cn(C(F)F)nc1Cl [Example 4-406] | < 100
O=C(N[C@@H]1CCC[C@H](Nc2cc(C(F)(F)F)nc3ccc(Cl)cc23)C1)c1cnn(C2COC2)c1 [Example 4-407] | < 100
N#Cc1cc(C(=O)N[C@@H]2CCC[C@H](Nc3cc(C(F)(F)F)nc4ccc(Cl)cc34)C2)c[nH]1 [Example 4-408] | < 100
CN(C)Cc1ccc(C(=O)N[C@@H]2CCC[C@H](Nc3cc(C(F)(F)F)nc4ccc(Cl)cc34)C2)cc1 [Example 4-410] | < 100
Cn1c(C(=O)N[C@@H]2CCC[C@H](Nc3cc(C(F)(F)F)nc4ccc(Cl)cc34)C2)cnc1Cl [Example 4-412] | < 100
CNc1cc(C(=O)N[C@@H]2CCC[C@H](Nc3cc(C(F)(F)F)nc4ccc(Cl)cc34)C2)ccc1OC [Example 4-413] | < 100
O=C(N[C@@H]1CCC[C@H](Nc2cc(C(F)(F)F)nc3ccc(Cl)cc23)C1)c1ccc(N2CC2)cc1 [Example 4-415] | < 100
Cn1ccc(C(=O)N[C@@H]2CCC[C@H](Nc3cc(C(F)(F)F)nc4ccc(Cl)cc34)C2)c1 [Example 4-416] | < 100
Cc1cn(C)cc1C(=O)N[C@@H]1CCC[C@H](Nc2cc(C(F)(F)F)nc3ccc(Cl)cc23)C1 [Example 4-417] | < 100
Nc1cnc(Cl)c(C(=O)N[C@@H]2CCC[C@H](Nc3cc(C(F)(F)F)nc4ccc(Cl)cc34)C2)c1 [Example 4-418] | < 100
Cc1cc(C(=O)N[C@@H]2CCC[C@H](Nc3cc(C(F)(F)F)nc4ccc(Cl)cc34)C2)co1 [Example 4-419] | < 100
O=C(N[C@@H]1CCC[C@H](Nc2cc(C(F)(F)F)nc3ccc(Cl)cc23)C1)c1ncco1 [Example 4-424] | < 100
O=C(N[C@@H]1CCC[C@H](Nc2cc(C(F)(F)F)nc3ccc(Cl)cc23)C1)c1ccon1 [Example 4-425] | < 100
Cc1cc(C(=O)N[C@@H]2CCC[C@H](Nc3cc(C(F)(F)F)nc4ccc(Cl)cc34)C2)c(C)[nH]1 [Example 4-426] | < 100
CCc1[nH]ccc1C(=O)N[C@@H]1CCC[C@H](Nc2cc(C(F)(F)F)nc3ccc(Cl)cc23)C1 [Example 4-427] | < 100
CCn1ncc(C(=O)N[C@@H]2CCC[C@H](Nc3cc(C(F)(F)F)nc4ccc(Cl)cc34)C2)c1C [Example 4-452] | < 100
Cc1nn(CC(F)(F)F)cc1C(=O)N[C@@H]1CCC[C@H](Nc2cc(C(F)(F)F)nc3ccc(Cl)cc23)C1 [Example 4-464] | < 100
O=C(N[C@@H]1CCC[C@H](Nc2cc(C(F)(F)F)nc3ccc(Cl)cc23)C1)c1cnn(C2CCCCC2)c1 [Example 4-487] | < 100
